# Source: article PMC3500388 (Organic & biomolecular chemistry, 2012)
# Several values for one entry are separate records, joined by “and”; a condition that tells them apart may be missing. Identical values can stand only once.
# What was measured:
# [1] = target: full-length human ERβ (Homo sapiens, UniProt Q92731); experiment: Luciferase reporter gene assay in HepG2 cells, ERβ, antagonist mode; format: cell-based
# [2] = target: T1, full-length human ERα (Homo sapiens, UniProt P03372); experiment: Luciferase reporter gene assay in HepG2 cells, ERα, agonist mode; settings: for Agonist mode ERα Eff (%E2) / ERα agonist activity / intrinsic activity, in words: HepG2 cells; for Agonist mode ERα Eff (%E2): mean ± s.e.m. as percentage of 10^−7 M E2
# T1 sequence (P03372 1-595): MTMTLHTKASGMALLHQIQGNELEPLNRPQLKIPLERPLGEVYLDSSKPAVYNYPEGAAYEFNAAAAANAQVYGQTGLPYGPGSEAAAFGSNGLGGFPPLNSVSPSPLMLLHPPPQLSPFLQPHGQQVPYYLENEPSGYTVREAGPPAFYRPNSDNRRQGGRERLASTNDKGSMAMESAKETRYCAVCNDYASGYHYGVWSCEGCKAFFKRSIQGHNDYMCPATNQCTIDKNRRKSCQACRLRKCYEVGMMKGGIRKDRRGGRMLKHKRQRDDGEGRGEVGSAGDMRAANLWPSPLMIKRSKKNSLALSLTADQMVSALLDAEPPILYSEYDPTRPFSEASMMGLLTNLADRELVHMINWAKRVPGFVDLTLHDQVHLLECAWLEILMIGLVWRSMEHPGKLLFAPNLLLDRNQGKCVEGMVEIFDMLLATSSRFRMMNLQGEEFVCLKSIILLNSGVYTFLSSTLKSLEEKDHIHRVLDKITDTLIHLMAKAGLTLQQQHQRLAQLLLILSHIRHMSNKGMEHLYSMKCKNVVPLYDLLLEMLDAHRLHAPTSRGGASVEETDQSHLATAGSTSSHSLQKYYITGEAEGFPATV
# [3] = target: T1, full-length human ERα; experiment: Luciferase reporter gene assay in HepG2 cells, ERα, antagonist mode; format: cell-based
# [4] = target: T2, purified full-length human ERα (Homo sapiens, UniProt P03372); experiment: Competitive radiometric binding assay, ERα; settings: estradiol = 100%; 2 nM [3H]estradiol tracer, 18–24 h at 0 °C
# T2 sequence (P03372 1-595): T1 sequence (P03372 1-595)
# [5] = target: purified full-length human ERβ (Homo sapiens, UniProt Q92731); experiment: Competitive radiometric binding assay, ERβ; settings: estradiol = 100%; 2 nM [3H]estradiol tracer, 18–24 h at 0 °C
# [6] = system: HEC-1 cells; settings: cited from earlier work
# full-length human ERβ, sequence (Q92731 whole entry): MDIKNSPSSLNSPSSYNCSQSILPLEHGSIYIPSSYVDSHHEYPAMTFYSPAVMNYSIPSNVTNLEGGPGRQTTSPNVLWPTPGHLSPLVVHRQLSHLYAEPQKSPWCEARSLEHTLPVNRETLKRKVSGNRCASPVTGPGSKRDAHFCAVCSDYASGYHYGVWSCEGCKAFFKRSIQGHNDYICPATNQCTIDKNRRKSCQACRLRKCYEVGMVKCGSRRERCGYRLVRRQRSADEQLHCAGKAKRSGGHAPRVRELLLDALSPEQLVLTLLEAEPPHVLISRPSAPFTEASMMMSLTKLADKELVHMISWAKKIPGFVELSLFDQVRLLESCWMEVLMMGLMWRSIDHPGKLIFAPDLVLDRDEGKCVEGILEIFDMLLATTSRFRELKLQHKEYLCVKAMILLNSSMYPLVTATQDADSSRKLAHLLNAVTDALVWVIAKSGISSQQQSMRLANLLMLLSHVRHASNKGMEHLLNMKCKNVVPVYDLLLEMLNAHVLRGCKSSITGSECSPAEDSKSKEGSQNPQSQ
# purified full-length human ERβ, sequence (Q92731 whole entry): as above
smiles,measurement,setting,value
"CC/C(=C(\c1ccc(O)cc1)c1ccc(OCCN(C)C)cc1)c1ccccc1 [4-OH TAM, 4-OH tamoxifen, reference compound]",Antagonist mode ERβ Eff (%E2),[1],−20 ± 2 %E2
"O=S(=O)(Nc1ccccc1)C1CC2OC1C(c1ccc(O)cc1)=C2c1ccc(O)cc1 (stereo not shown) [Compound 11a, 5,6-Bis(4-hydroxyphenyl)-N-phenyl-7-oxabicyclo[2.2.1]hept-5-ene-2-sulfonamide]",EC50,[2],100 nM
same,Agonist mode ERα Eff (%E2),[2],78 ± 1 %E2
"O=S(=O)(Nc1ccccc1Cl)C1CC2OC1C(c1ccc(O)cc1)=C2c1ccc(O)cc1 (stereo not shown) [Compound 11c, N-(2-Chlorophenyl)-5,6-bis(4-hydroxyphenyl)-7-oxabicyclo-[2.2.1]hept-5-ene-2-sulfonamide]",EC50,[2],200 nM
same,Agonist mode ERα Eff (%E2),[2],81 ± 4 %E2
"O=S(=O)(Nc1ccc(Cl)cc1)C1CC2OC1C(c1ccc(O)cc1)=C2c1ccc(O)cc1 (stereo not shown) [Compound 11d, N-(4-Chlorophenyl)-5,6-bis(4-hydroxyphenyl)-7-oxabicyclo-[2.2.1]hept-5-ene-2-sulfonamide]",Agonist mode ERα Eff (%E2),[2],42 ± 3 %E2
"CN(c1ccccc1)S(=O)(=O)C1CC2OC1C(c1ccc(O)cc1)=C2c1ccc(O)cc1 (stereo not shown) [Compound 11e, 5,6-Bis(4-hydroxyphenyl)-N-methyl-N-phenyl-7-oxabicyclo-[2.2.1]hept-5-ene-2-sulfonamide]",IC50,"[3]; read-out: Antagonist mode ERα IC50, in the presence of 10^−8 M E2",740 nM
same,IC50,"[1]; read-out: Antagonist mode ERβ IC50, HepG2 cells, in the presence of 10^−8 M E2",10 nM
same,Agonist mode ERα Eff (%E2),[2],31 ± 3 %E2
"CN(c1ccccc1Cl)S(=O)(=O)C1CC2OC1C(c1ccc(O)cc1)=C2c1ccc(O)cc1 (stereo not shown) [Compound 11g, N-(2-Chlorophenyl)-5,6-bis(4-hydroxyphenyl)-N-methyl-7-oxabicyclo[2.2.1]hept-5-ene-2-sulfonamide]",relative binding affinity (RBA) for ERα,[4],7.17% and 7.2%
same,relative binding affinity (RBA) for ERβ,[5],1.59% and 1.6%
same,EC50,[2],8 nM
same,Agonist mode ERα Eff (%E2),[2],33 ± 1 %E2
"CCN(c1ccccc1)S(=O)(=O)C1CC2OC1C(c1ccc(O)cc1)=C2c1ccc(O)cc1 (stereo not shown) [Compound 11i, N-Ethyl-5,6-bis(4-hydroxyphenyl)-N-phenyl-7-oxabicyclo-[2.2.1]hept-5-ene-2-sulfonamide]","ERα agonist activity / intrinsic activity, in words",[2],low efficacy compound
same,Agonist mode ERα Eff (%E2),[2],11 ± 1 %E2
"CCN(c1ccc(OC)cc1)S(=O)(=O)C1CC2OC1C(c1ccc(O)cc1)=C2c1ccc(O)cc1 (stereo not shown) [Compound 11j, N-Ethyl-5,6-bis(4-hydroxyphenyl)-N-(4-methoxyphenyl)-7-oxabicyclo[2.2.1]hept-5-ene-2-sulfonamide]","ERβ profile / intrinsic activity, in words",[1]; HepG2 cells,as low as that for fulvestrant
same,"ERα agonist activity / intrinsic activity, in words",[2],as low as that for fulvestrant
same,Agonist mode ERα Eff (%E2),[2],3 ± 1 %E2
"CCN(c1ccccc1Cl)S(=O)(=O)C1CC2OC1C(c1ccc(O)cc1)=C2c1ccc(O)cc1 (stereo not shown) [Compound 11k, N-(2-Chlorophenyl)-N-ethyl-5,6-bis(4-hydroxyphenyl)-7-oxabicyclo[2.2.1]hept-5-ene-2-sulfonamide]",Agonist mode ERα Eff (%E2),[2],13 ± 1 %E2
"CCN(c1ccc(Cl)cc1)S(=O)(=O)C1CC2OC1C(c1ccc(O)cc1)=C2c1ccc(O)cc1 (stereo not shown) [Compound 11l, N-(4-Chlorophenyl)-N-ethyl-5,6-bis(4-hydroxyphenyl)-7-oxabicyclo[2.2.1]hept-5-ene-2-sulfonamide]",Agonist mode ERα Eff (%E2),[2],1 ± 1 %E2
"O=S(=O)(C1CC2OC1C(c1ccc(O)cc1)=C2c1ccc(O)cc1)N(CC(F)(F)F)c1ccc(Cl)cc1 (stereo not shown) [Compound 11o, N-(4-Chlorophenyl)-5,6-bis(4-hydroxyphenyl)-N-(2,2,2-trifluoroethyl)-7-oxabicyclo[2.2.1]hept-5-ene-2-sulfonamide]",Agonist mode ERα Eff (%E2),[2],3 ± 3 %E2
"C[C@]12CC[C@@H]3c4ccc(O)cc4C[C@@H](CCCCCCCCC[S+]([O-])CCCC(F)(F)C(F)(F)F)[C@H]3[C@@H]1CC[C@@H]2O (stereo partly shown) [Fulvestrant, fulvestrant, reference compound]","ERα antagonist profile, in words",[3],full antagonist
same,"ERβ profile / intrinsic activity, in words",[1]; HepG2 cells,full antagonist
same,Agonist mode ERα Eff (%E2),[2],1 ± 1 %E2
"O=S(=O)(Oc1ccccc1)[C@H]1C[C@H]2O[C@@H]1C(c1ccc(O)cc1)=C2c1ccc(O)cc1 [OBHS, exo-5,6-bis-(4-hydroxyphenyl)-7-oxabicyclo[2.2.1]hept-5-ene-2-sulfonic acid phenyl ester]","profile in HEC-1 cells, in words",[6],full antagonist
